These results are taken from patent US20250228856A1, “USE OF HEMATOPOIETIC CELL KINASE (HCK) INHIBITOR IN PREPARATION OF DRUG FOR TREATING PULMONARY FIBROSIS” (Institute of Basic Medical Sciences, CAMS, priority 2024, published 2025).

What all share (type): in vivo, C57BL/6J mice
Assay [1] deals with IPF mice. As to the kind of experiment: Pulmonary function test in IPF mice. The conditions noted are these: BLM IPF mice, 30 mg/kg i.p., 3 weeks. On the procedure:
(§1) Male C57BL/6J mice (aged 8 weeks and weighing 25-30 g) were selected and housed in an SPF grade laboratory animal room, and the model of IPF was constructed by one-time intratracheal instillation of bleomycin (BLM); the mice were divided into four groups (n=9): • 1) PBS group+vehicle group: PBS (the volume consistent with the subsequent BLM infusion volume) was given by tracheal instillation; RK-20449 solvent PBS was injected intraperitoneally; • 2) PBS+RK-20449 group: intratracheal instillation of PBS (volume consistent with subsequent BLM infusion volume); intraperitoneal injection of RK-20449 (30 mg/kg, once a day, 6 d a week, for 3 weeks); • 3) BLM+vehicle group: BLM solution (2 U/kg) was given tracheal infusion; RK-20449 solvent PBS was injected intraperitoneally; and • 4) BLM+RK-20449 group: BLM solution (2 U/kg) was given tracheal infusion, and RK-20449 (30 mg/kg, once a day, 6 d a week, for 3 weeks) was injected intraperitoneally.
(§2) All mice were sacrificed after 21 d of administration, and the corresponding samples were collected for detection.
Anesthetized mice were fixed on an experimental table, and mouse lung function was detected by a pulmonary function testing system (DSI Buxco, USA). Before experiment, the mouse was anesthetized by intraperitoneal injection of 0.4 mL/100 g 2% pentobarbital, tracheotomy was performed, a trachea cannula was inserted, and a ventilator was connected. Next, FRC, PV, FV, and RC were automatically tested by a PET system. Indicators closely related to lung function changes in pulmonary fibrosis for statistical analysis, including lung volume indicators such as IC, and pulmonary ventilation function tests such as RI, Cdyn, and Cchord.

Assay [2] concerns IPF mice. Description: HYP content and degree of lesions in lung tissue of IPF mice. The conditions noted are these: BLM IPF mice, 30 mg/kg i.p., 3 weeks. On the procedure:
as §1, §2
30 mg of mouse lung tissue was detected using an HYP kit (NBP2-59747, Novus Biologicals, Littleton, CO, USA).

Assay [3] relates to IPF mice. Description: Transcription levels of fibrosis factors in lung tissue of IPF mice (qPCR). The conditions noted are these: BLM IPF mice, 30 mg/kg i.p., 3 weeks. The procedure:
as §1, §2
(§3) Lung tissue RNA of all mice was extracted; cDNA was obtained by using a reverse transcription kit (KR103, Tiangen Biotechnology, Beijing, China); qPCR was conducted by using a SYBR Green I Q-PCR Kit (TransGen Biotech, Beijing China); data collection and analysis were conducted by Bio-Rad IQ5 system.

Assay [4] relates to IPF mice. As to the kind of experiment: Transcription levels of inflammatory factors in lung tissue of IPF mice (qPCR). The following applies: BLM IPF mice, 30 mg/kg i.p., 3 weeks. On the procedure:
as §1, §2, §3

Assay [5] concerns IPF mice. As to the kind of experiment: ELISA of inflammatory factors in BALF of IPF mice. The following applies: BLM IPF mice, 30 mg/kg i.p., 3 weeks. The procedure: as §1, §2
Concentrations of inflammatory factors IL-1β and IL-6 in mouse BALF were detected by using ELISA kits.

The next assay concerns Hck. Description: Hck transcription level in lung tissue of IPF mice (qPCR). The conditions noted are these: BLM (2 U/kg) IPF mice; RK-20449 30 mg/kg i.p. once a day, 6 d a week, 3 weeks; FIG. 1. On the procedure:
as §1, §2, §3
A general note: Real-time PCR tracks product formation cycle by cycle.

Assay [6] relates to IPF mice. As to the kind of experiment: Body weight and survival rate of IPF mice. The conditions noted are these: BLM IPF mice, 30 mg/kg i.p., 3 weeks. The procedure:
as §1, §2
The mice in each group were weighed, and the death of the mice was observed and counted.

In the case of `CN1CCN(C2CCC(n3cc(-c4ccc(Oc5ccccc5)cc4)c4c(N)ncnc43)CC2)CC1` (stereo not shown) [RK-20449], the “lung function: inspiratory resistance (RI)” value in the assay on IPF mice [1] (FIG. 2C) is reported as “improved significantly”. Besides, the “lung function: dynamic compliance (Cdyn)” value in the assay with IPF mice [1] (FIG. 2D) was “improved significantly”. For the same compound, the “lung function: quasi-static compliance (Cchord)” value in the assay on IPF mice [1] (FIG. 2E) is listed as “improved significantly”. Further, the “lung function: inspiratory capacity (IC)” value in the assay on IPF mice [1] (FIG. 2F) was “improved significantly”. In the assay on IPF mice [2], the degree of lesions result was “alleviated”. Besides, the “hydroxyproline content in lung tissue” value with IPF mice [2] (lung tissue, FIG. 4C) is on record as “decreased”. Besides, in the assay on IPF mice [3] (FIG. 4A), the “transcription level of Col-I” value was “decreased”. Besides, in the assay on IPF mice [3] (FIG. 4B), the “transcription level of Fn-1” value is on record as “decreased”. Besides, the “transcription level of Il-1β” value in the assay on IPF mice [4] (FIG. 3A) was “decreased”. In the assay on IPF mice [4] (FIG. 3B), the “transcription level of Il-6” value is on record as “decreased”. The “transcription level of Tnf-α” value with IPF mice [4] (FIG. 3C) was “decreased”. Besides, the “concentration of IL-1β in the alveolar lavage fluid” value in the assay with IPF mice [5] (FIG. 3D) is on record as “decreased”. The “concentration of IL-6 in the alveolar lavage fluid” value in the assay on IPF mice [5] (FIG. 3E) was “decreased”. Further, in the assay on Hck, the “transcription level of Hck in the lung tissue” value is “effectively inhibit”. Moreover, in the assay with IPF mice [6] (FIG. 2A), the “weight loss of IPF mice” value was “alleviated”. In addition, the survival rate result in the assay with IPF mice [6] (FIG. 2B) was “increased to a certain extent”.
